Experimental data from patent US11208412B2 (DAEGU-GYEONGBUK MEDICAL INNOVATION FOUNDATION, priority 2017, dated 2021).

Assays:
Assay in all cases: Kinase selectivity, DiscoverX scanMAX Kinase assay panel (% control)
Assay type in all cases: binding
[1] = molecular target: T1, kinases of the scanMAX Kinase assay panel (Homo sapiens, UniProt Q12852); settings: DLK; 1 uM
T1 construct: purchased DiscoverX Co. (contract measurement) scanMAX Kinase assay panel
T1 sequence (Q12852 1-859): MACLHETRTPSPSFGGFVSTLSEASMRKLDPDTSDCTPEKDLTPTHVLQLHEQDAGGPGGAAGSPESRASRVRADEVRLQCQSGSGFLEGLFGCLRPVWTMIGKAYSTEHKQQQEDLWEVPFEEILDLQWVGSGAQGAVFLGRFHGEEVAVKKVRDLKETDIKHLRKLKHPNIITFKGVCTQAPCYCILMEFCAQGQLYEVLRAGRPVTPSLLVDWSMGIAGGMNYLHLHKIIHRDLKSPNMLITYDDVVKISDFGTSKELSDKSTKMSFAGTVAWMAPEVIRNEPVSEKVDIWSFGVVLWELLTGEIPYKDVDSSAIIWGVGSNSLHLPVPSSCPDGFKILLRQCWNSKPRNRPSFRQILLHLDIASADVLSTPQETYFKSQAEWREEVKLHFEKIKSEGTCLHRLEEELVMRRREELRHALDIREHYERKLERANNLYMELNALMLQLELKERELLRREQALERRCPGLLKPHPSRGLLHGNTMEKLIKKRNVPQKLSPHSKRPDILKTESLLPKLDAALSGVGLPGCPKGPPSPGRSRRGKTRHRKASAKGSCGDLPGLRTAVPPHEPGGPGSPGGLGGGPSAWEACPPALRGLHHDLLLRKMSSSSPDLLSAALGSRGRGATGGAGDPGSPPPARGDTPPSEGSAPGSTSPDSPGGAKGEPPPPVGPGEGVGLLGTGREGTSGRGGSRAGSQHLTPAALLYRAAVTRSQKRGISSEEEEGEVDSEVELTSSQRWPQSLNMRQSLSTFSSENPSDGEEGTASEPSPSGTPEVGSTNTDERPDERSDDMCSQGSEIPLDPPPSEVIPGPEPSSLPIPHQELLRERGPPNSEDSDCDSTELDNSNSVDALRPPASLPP
Procedure, shortened: (§1)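 Single-point screen, 1 uM cpd in DMSO. % ctrl = (cpd − pos ctrl)/(neg ctrl − pos ctrl)×100; pos ctrl = 0%, DMSO neg ctrl = 100%. Hit cutoff <35%.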

[2] = molecular target: T2, kinases of the scanMAX Kinase assay panel (Homo sapiens, UniProt P22607, G697C); settings: FGFR3(G697C); 1 uM
T2 construct: purchased DiscoverX Co. (contract measurement) scanMAX Kinase assay panel
T2 sequence (P22607 23-806 G697C): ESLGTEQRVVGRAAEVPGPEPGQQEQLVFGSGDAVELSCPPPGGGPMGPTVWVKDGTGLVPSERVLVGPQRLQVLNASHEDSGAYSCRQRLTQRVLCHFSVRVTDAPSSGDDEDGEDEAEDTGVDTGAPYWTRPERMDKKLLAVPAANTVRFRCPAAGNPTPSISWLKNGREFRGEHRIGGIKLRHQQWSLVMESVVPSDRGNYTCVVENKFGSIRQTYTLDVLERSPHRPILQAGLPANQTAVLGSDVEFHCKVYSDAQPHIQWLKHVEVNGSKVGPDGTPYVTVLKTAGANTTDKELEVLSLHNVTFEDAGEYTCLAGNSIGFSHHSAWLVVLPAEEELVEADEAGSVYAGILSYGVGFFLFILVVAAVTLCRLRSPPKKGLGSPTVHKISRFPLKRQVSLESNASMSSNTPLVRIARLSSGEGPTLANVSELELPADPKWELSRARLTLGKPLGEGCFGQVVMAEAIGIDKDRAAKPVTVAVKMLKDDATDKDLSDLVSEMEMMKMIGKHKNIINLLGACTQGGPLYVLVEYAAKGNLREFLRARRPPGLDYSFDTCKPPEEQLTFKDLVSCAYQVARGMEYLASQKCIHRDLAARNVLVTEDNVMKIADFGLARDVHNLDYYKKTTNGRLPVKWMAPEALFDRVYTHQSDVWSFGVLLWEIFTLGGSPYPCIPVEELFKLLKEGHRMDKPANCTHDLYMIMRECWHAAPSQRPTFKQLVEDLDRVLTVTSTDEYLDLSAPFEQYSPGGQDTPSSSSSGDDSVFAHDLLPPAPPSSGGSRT
Procedure, shortened: as §1

[3] = molecular target: T3, kinases of the scanMAX Kinase assay panel (Homo sapiens, UniProt P07333); settings: 1 uM
T3 construct: purchased DiscoverX Co. (contract measurement) scanMAX Kinase assay panel
T3 sequence (P07333 20-972): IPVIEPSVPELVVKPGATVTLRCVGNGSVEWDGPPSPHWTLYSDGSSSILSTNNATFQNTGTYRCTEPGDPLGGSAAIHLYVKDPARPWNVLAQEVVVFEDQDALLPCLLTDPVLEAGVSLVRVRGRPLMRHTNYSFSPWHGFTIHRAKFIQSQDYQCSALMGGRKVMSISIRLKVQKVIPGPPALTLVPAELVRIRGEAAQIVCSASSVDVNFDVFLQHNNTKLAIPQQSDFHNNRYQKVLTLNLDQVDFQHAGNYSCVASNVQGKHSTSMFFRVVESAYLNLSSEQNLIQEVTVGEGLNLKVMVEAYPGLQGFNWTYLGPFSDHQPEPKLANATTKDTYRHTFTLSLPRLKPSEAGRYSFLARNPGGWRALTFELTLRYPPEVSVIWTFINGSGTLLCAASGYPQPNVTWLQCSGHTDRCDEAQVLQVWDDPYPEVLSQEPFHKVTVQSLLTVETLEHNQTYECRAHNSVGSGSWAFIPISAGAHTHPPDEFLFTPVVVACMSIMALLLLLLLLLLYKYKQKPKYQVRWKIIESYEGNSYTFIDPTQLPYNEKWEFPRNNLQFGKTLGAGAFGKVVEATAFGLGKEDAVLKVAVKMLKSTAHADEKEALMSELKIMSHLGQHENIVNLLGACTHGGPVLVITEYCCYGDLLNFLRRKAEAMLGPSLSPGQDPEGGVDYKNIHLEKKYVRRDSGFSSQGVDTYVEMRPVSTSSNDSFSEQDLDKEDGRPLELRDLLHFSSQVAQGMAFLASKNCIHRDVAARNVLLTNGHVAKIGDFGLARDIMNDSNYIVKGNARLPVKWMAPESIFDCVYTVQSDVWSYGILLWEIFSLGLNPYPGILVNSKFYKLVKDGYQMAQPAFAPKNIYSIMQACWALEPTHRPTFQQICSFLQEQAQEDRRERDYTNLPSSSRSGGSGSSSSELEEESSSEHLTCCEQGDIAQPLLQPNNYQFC
Procedure, shortened: as §1

[4] = molecular target: T4, kinases of the scanMAX Kinase assay panel (Homo sapiens, UniProt P07949, V804L); settings: kinase RET(V804L); 1 uM in DMSO
T4 construct: purchased DiscoverX Co. (contract measurement) scanMAX Kinase assay panel
Procedure, shortened: as §1

[5] = molecular target: T5, kinases of the scanMAX Kinase assay panel (Homo sapiens, UniProt Q16513); settings: PKN2; 1 uM
T5 construct: purchased DiscoverX Co. (contract measurement) scanMAX Kinase assay panel
Procedure, shortened: as §1

[6] = molecular target: T6, kinases of the scanMAX Kinase assay panel (Homo sapiens, UniProt P35968); settings: kinase VEGFR2; 1 uM in DMSO
T6 construct: purchased DiscoverX Co. (contract measurement) scanMAX Kinase assay panel
T6 sequence (P35968 20-1356): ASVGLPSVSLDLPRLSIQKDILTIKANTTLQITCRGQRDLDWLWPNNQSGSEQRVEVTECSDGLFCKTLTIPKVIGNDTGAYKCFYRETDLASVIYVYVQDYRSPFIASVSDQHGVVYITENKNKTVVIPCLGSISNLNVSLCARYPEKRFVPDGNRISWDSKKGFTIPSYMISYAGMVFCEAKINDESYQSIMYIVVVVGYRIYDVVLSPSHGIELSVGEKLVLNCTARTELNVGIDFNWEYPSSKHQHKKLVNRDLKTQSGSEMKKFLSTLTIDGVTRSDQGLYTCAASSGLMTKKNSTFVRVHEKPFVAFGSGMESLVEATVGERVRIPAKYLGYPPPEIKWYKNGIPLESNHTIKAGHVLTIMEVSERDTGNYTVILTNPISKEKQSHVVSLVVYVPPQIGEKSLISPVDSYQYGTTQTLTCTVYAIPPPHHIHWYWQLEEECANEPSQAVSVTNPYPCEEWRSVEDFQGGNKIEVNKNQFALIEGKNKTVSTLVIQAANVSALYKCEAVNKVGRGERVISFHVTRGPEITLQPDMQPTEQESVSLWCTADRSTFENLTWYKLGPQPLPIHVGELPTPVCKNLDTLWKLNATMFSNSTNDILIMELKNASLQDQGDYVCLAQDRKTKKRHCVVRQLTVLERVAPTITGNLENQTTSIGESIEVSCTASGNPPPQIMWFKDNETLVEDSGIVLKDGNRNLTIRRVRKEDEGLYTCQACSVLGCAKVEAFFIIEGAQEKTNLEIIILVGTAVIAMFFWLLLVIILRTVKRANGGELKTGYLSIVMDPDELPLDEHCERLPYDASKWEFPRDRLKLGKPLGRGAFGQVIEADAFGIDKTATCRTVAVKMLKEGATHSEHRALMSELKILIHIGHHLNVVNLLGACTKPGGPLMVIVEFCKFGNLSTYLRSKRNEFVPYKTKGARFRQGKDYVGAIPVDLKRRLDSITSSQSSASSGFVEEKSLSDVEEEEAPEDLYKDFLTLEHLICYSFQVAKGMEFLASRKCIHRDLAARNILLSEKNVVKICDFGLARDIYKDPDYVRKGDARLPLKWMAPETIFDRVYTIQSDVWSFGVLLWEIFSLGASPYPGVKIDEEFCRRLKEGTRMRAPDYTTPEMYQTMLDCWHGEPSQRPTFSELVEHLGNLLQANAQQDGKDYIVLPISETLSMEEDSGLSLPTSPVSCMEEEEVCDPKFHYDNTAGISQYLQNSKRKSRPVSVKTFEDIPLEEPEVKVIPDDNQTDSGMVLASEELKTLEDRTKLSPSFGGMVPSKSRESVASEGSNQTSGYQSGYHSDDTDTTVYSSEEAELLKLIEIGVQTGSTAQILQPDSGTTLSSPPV
Procedure, shortened: as §1

[7] = molecular target: T7, kinases of the scanMAX Kinase assay panel (Homo sapiens, UniProt Q9NQU5); settings: PAK6; 1 uM
T7 construct: purchased DiscoverX Co. (contract measurement) scanMAX Kinase assay panel
T7 sequence (Q9NQU5 whole entry): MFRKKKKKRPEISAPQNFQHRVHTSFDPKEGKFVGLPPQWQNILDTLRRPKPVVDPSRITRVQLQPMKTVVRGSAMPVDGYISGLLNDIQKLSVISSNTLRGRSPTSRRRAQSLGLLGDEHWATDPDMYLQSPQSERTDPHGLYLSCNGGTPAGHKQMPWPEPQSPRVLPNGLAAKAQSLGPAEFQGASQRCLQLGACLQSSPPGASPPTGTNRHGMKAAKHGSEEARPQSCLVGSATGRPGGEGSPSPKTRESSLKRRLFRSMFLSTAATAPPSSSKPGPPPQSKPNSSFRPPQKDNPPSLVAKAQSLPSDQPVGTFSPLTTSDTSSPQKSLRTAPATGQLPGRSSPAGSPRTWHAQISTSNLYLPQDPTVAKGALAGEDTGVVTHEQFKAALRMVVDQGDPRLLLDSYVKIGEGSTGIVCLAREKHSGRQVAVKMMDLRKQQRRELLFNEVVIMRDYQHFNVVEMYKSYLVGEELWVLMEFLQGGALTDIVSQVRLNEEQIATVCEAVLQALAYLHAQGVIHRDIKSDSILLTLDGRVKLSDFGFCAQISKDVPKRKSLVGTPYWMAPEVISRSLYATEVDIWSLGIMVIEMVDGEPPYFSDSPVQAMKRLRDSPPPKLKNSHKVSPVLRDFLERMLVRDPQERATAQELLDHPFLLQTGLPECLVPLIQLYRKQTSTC
Procedure, shortened: as §1

[8] = molecular target: T8, kinases of the scanMAX Kinase assay panel (Homo sapiens, UniProt Q12866); settings: MERTK; 1 uM
T8 construct: purchased DiscoverX Co. (contract measurement) scanMAX Kinase assay panel
T8 sequence (Q12866 21-999): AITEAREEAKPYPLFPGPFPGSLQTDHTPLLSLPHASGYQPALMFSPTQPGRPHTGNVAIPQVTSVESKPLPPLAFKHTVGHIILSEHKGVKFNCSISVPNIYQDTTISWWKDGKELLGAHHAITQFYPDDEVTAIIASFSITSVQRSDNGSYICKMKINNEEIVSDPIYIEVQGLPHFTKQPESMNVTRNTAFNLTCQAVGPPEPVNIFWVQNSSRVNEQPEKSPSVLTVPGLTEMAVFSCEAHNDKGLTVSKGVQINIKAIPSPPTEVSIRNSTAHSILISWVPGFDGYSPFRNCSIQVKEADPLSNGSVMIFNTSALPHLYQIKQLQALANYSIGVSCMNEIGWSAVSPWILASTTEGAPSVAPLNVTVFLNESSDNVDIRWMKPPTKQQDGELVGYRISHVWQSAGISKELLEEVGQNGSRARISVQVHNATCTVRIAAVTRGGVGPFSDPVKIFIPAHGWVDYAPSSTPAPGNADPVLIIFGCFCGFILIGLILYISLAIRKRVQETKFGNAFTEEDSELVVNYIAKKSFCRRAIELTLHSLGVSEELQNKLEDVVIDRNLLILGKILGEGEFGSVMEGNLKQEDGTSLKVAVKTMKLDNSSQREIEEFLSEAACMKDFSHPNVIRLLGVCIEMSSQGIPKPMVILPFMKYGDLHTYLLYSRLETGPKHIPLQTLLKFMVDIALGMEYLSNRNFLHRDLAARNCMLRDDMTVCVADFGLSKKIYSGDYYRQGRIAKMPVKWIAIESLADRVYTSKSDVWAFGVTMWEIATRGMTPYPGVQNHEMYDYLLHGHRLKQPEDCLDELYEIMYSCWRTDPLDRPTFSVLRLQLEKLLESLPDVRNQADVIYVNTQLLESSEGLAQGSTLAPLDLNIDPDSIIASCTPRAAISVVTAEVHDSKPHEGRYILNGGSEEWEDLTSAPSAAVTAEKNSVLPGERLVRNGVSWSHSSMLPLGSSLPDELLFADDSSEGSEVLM
Procedure, shortened: as §1

[9] = molecular target: T9, kinases of the scanMAX Kinase assay panel (Homo sapiens, UniProt P23458); settings: 1 uM
T9 construct: purchased DiscoverX Co. (contract measurement) scanMAX Kinase assay panel
T9 sequence (P23458 whole entry): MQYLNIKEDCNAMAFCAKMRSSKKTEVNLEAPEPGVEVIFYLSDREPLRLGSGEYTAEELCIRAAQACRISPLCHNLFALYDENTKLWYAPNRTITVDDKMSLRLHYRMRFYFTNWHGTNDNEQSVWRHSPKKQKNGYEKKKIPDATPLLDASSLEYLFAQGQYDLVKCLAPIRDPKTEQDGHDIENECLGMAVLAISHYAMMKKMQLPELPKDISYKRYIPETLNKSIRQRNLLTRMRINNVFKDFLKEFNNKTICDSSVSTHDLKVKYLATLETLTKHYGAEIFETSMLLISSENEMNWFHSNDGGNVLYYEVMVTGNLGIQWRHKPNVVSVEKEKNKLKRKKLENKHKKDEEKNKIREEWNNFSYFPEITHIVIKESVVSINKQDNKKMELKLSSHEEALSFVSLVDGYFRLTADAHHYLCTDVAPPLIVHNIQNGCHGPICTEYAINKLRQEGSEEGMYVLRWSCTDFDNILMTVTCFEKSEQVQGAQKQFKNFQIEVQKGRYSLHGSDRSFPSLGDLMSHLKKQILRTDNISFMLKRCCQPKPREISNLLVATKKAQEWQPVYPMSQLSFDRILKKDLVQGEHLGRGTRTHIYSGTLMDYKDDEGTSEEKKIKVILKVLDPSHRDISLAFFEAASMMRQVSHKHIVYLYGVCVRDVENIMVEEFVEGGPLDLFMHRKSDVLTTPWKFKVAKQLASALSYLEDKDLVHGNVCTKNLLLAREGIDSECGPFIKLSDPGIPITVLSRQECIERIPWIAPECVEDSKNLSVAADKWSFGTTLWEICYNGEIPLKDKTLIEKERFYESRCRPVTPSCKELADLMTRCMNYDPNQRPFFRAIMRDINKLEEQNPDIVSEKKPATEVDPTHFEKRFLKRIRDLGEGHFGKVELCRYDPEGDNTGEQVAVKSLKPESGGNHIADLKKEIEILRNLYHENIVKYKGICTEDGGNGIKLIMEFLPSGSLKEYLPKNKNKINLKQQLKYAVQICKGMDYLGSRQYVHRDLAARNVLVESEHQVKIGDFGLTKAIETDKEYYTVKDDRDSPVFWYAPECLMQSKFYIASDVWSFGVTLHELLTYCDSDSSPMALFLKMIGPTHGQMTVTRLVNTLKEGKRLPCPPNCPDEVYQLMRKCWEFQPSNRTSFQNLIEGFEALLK
Procedure, shortened: as §1

Compound: CNc1nc(Nc2ccc(C(=O)N3CCOCC3)cc2OC)nc2[nH]cc(C#N)c12 [Example 1, 2-((2-methoxy-4-(morpholine-4-carbonyl)phenyl)amino)-4-(methylamino)-7H-pyrrolo[2,3-d]pyrimidine-5-carbonitrile]
- remaining binding at 1 µM [1]: 74%
- remaining binding at 1 µM [2]: 97%
- remaining binding at 1 µM ([3]; CSF1R-autoinhibited): 46%
- remaining binding at 1 µM ([3]; CSF1R): 89%
- remaining binding at 1 µM [4]: 79%
- remaining binding at 1 µM [5]: 53%
- remaining binding at 1 µM [6]: 63%
- remaining binding at 1 µM [7]: 76%
- remaining binding at 1 µM [8]: 96%
- remaining binding at 1 µM ([9]; JAK1(JH1domain-catalytic)): 92%
- remaining binding at 1 µM ([9]; JAK1(JH2domain-pseudokinase)): 14%

Compound: CC1(Nc2nc(Nc3cnn([C@H]4CCN(C5COC5)C[C@@H]4F)c3Cl)nc3[nH]cc(C#N)c23)CC1 [Example 52, 2-((5-chloro-1-((3S,4S)-3-fluoro-1-(oxetane-3-yl)piperidine-4-yl)-1H-pyrazole-4-yl)amino)((1-methylcyclopropyl)amino)-7H-pyrrolo[2,3-d]pyrimidine-5-carbonitrile]
- remaining binding at 1 µM [1]: 21%
- remaining binding at 1 µM [2]: 11%
- remaining binding at 1 µM ([3]; CSF1R-autoinhibited): 0%
- remaining binding at 1 µM ([3]; CSF1R): 0%
- remaining binding at 1 µM [4]: 0%
- remaining binding at 1 µM [5]: 78%
- remaining binding at 1 µM [6]: 3.7%
- remaining binding at 1 µM [7]: 8.3%
- remaining binding at 1 µM [8]: 0%
- remaining binding at 1 µM ([9]; JAK1(JH1domain-catalytic)): 44%
- remaining binding at 1 µM ([9]; JAK1(JH2domain-pseudokinase)): 0%

Compound: CCNc1nc(Nc2ccc(C(=O)N3CCC(N4CCOCC4)CC3)cc2OC)nc2[nH]cc(C(F)(F)F)c12 [Example 104, (4-((4-(ethylamino)-5-(trifluoromethyl)-7H-pyrrolo[2,3-d]pyrimidine-2-yl)amino)-3-methoxyphenyl)(4-morpholinopiperidine-1-yl)methanone]
- remaining binding at 1 µM [1]: 100%
- remaining binding at 1 µM [2]: 100%
- remaining binding at 1 µM ([3]; CSF1R-autoinhibited): 100%
- remaining binding at 1 µM ([3]; CSF1R): 88%
- remaining binding at 1 µM [4]: 89%
- remaining binding at 1 µM [5]: 100%
- remaining binding at 1 µM [6]: 73%
- remaining binding at 1 µM [7]: 91%
- remaining binding at 1 µM [8]: 93%
- remaining binding at 1 µM ([9]; JAK1(JH1domain-catalytic)): 100%
- remaining binding at 1 µM ([9]; JAK1(JH2domain-pseudokinase)): 55%
